Reference: ChEMBL document CHEMBL1201862, “PubChem BioAssay data set” (2004)
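Exposure lasted 48 hours, with cells grown in 96-well plates and compounds tested at five concentrations. GI50 marks 50% less growth.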 The source made the active and inactive calls. Cut-off read from the data, not from the text of the source: active = GI50 up to about 1.1 µM and inactive = higher.

Tests used:
Assay in all cases: NCI tumour cell line growth inhibition, 48 h
786-0 = system: 786-0
A498 = system: A498
A549 = system: A549
CAKI-1 = system: CAKI-1
CCRF-CEM = system: CCRF-CEM
HCC 2998 = system: HCC 2998
HOP-92 = system: HOP-92
HT-29 = system: HT-29
IGROV-1 = system: IGROV-1
Malme-3M = system: Malme-3M
NCI-H23 = system: NCI-H23
NCI-H522 = system: NCI-H522
RXF 393 = system: RXF 393
SNB-75 = system: SNB-75
SW-620 = system: SW-620
UACC-62 = system: UACC-62
MOLT-4 = system: MOLT-4
BT-549 = system: BT-549
DU-145 = system: DU-145
T47D = system: T47D

Row | Structure (SMILES) | GI50 (786-0) | GI50 (A498) | GI50 (A549) | GI50 (CAKI-1) | GI50 (CCRF-CEM) | GI50 (HCC 2998) | GI50 (HOP-92) | GI50 (HT-29) | GI50 (IGROV-1) | GI50 (Malme-3M) | GI50 (NCI-H23) | GI50 (NCI-H522) | GI50 (RXF 393) | GI50 (SNB-75) | GI50 (SW-620) | GI50 (UACC-62) | GI50 (MOLT-4) | GI50 (BT-549) | GI50 (DU-145) | GI50 (T47D)
1 | Cn1c2c([N+](=O)[O-])[se]nc2c(=O)n1-c1ccc([N+](=O)[O-])cc1 | 2.44 µM (inactive) | 11.4 µM (inactive) | 7.24 µM (inactive) | 1.94 µM (inactive) | 0.627 µM (active) | 1.74 µM (inactive) | 1.63 µM (inactive) | 2.74 µM (inactive) | 1.29 µM (inactive) | 1.75 µM (inactive) | 1.98 µM (inactive) | 1.7 µM (inactive) | 0.665 µM (active) | 4.03 µM (inactive) | 0.357 µM (active) | 1.6 µM (inactive) |  |  |  | 
2 | Cn1c(=O)nc2n(-c3ccc(F)cc3)c3ccccc3nc-2c1=O | 28.2 µM (inactive) | 32.6 µM (inactive) | 18.3 µM (inactive) | 28.8 µM (inactive) | 26.6 µM (inactive) | 19.1 µM (inactive) |  | 14.1 µM (inactive) | 24 µM (inactive) | 10.5 µM (inactive) | 20 µM (inactive) | 16.1 µM (inactive) | 23.8 µM (inactive) | 31 µM (inactive) | 18.8 µM (inactive) | 12.2 µM (inactive) | 25.7 µM (inactive) |  |  | 
3 | NC(=O)c1ncn(C2OC(CO)C(O)C2O)c1NC(=S)NC(=O)c1ccccc1 (centres undefined) | > 100 µM (inactive) | > 100 µM (inactive) | > 100 µM (inactive) | > 100 µM (inactive) | > 100 µM (inactive) | > 100 µM (inactive) | > 100 µM (inactive) | > 100 µM (inactive) | > 100 µM (inactive) | > 100 µM (inactive) | > 100 µM (inactive) | > 100 µM (inactive) | > 100 µM (inactive) | > 100 µM (inactive) | > 100 µM (inactive) | > 100 µM (inactive) | > 100 µM (inactive) |  |  | 
4 | Nc1ncnc2c1ncn2COC/C=C/I | > 100 µM (inactive) | > 100 µM (inactive) | > 100 µM (inactive) | > 100 µM (inactive) | 85.3 µM (inactive) | > 100 µM (inactive) | > 100 µM (inactive) | > 100 µM (inactive) | > 100 µM (inactive) | > 100 µM (inactive) | > 100 µM (inactive) | > 100 µM (inactive) | > 100 µM (inactive) | 36.7 µM (inactive) | > 100 µM (inactive) | > 100 µM (inactive) | > 100 µM (inactive) |  |  | 
5 | CCCNC1=Nc2ccccc2N(Cc2ccccc2)CC1 | 32.4 µM (inactive) | 11.4 µM (inactive) | 35.4 µM (inactive) | 21.3 µM (inactive) | 21 µM (inactive) |  |  | 19.5 µM (inactive) | 4.54 µM (inactive) | 10.3 µM (inactive) | 16.5 µM (inactive) | 13.9 µM (inactive) | 11.6 µM (inactive) | 5.62 µM (inactive) | 23.7 µM (inactive) | 13.5 µM (inactive) | 10.9 µM (inactive) | 15.5 µM (inactive) | 33.9 µM (inactive) | 
6 | COc1cc(CCc2ccc(OCCN(C)C)cc2)cc(OC)c1OC | > 100 µM (inactive) | 76 µM (inactive) | > 100 µM (inactive) | > 100 µM (inactive) | > 100 µM (inactive) |  | 52.4 µM (inactive) | 34.2 µM (inactive) | > 100 µM (inactive) | 93.3 µM (inactive) |  | 83.8 µM (inactive) | 41.8 µM (inactive) | 45.1 µM (inactive) | > 100 µM (inactive) | > 100 µM (inactive) | 32.6 µM (inactive) |  |  | 
7 | O=c1c(-c2ccccc2)c(SCCCN2CCN(c3cccc(Cl)c3)CC2)n(-c2ccccc2)c(=S)n1-c1ccccc1 |  | > 100 µM (inactive) |  | 25.6 µM (inactive) | > 100 µM (inactive) | > 100 µM (inactive) | > 100 µM (inactive) | 80.9 µM (inactive) | > 100 µM (inactive) | > 100 µM (inactive) | > 100 µM (inactive) | > 100 µM (inactive) | > 100 µM (inactive) | > 100 µM (inactive) | > 100 µM (inactive) | > 100 µM (inactive) | > 100 µM (inactive) | > 100 µM (inactive) | > 100 µM (inactive) | 
8 | CCN(CC)CCSc1nc2cccc([N+](=O)[O-])c2[nH]1 |  |  | > 100 µM (inactive) | > 100 µM (inactive) | > 100 µM (inactive) | > 100 µM (inactive) | 33.4 µM (inactive) | > 100 µM (inactive) | > 100 µM (inactive) |  | > 100 µM (inactive) | > 100 µM (inactive) | > 100 µM (inactive) | > 100 µM (inactive) | > 100 µM (inactive) | > 100 µM (inactive) | > 100 µM (inactive) |  |  | 
9 | O=c1[nH]nc(NNc2ccccc2)c2nnn(C3CCCCC3)c12 |  |  | > 100 µM (inactive) | > 100 µM (inactive) | > 100 µM (inactive) | > 100 µM (inactive) | > 100 µM (inactive) | > 100 µM (inactive) |  | > 100 µM (inactive) | > 100 µM (inactive) |  |  |  |  |  | > 100 µM (inactive) | > 100 µM (inactive) | > 100 µM (inactive) | 
10 | Cc1cc(C)nc(NS(=O)(=O)c2ccc(Nc3c4ccccc4nc4c(C(=O)N5CCN(CCOS(C)(=O)=O)CC5)ccc(Cl)c34)cc2)n1 | 43.7 µM (inactive) | > 100 µM (inactive) | > 100 µM (inactive) | > 100 µM (inactive) | > 100 µM (inactive) | > 100 µM (inactive) | > 100 µM (inactive) | > 100 µM (inactive) | > 100 µM (inactive) | > 100 µM (inactive) | > 100 µM (inactive) |  | > 100 µM (inactive) | > 100 µM (inactive) |  | > 100 µM (inactive) | > 100 µM (inactive) |  |  | 
11 | COC(=O)c1cc(CNCCc2c[nH]c3ccccc23)on1 | 33.8 µM (inactive) | > 100 µM (inactive) | > 100 µM (inactive) | > 78.2 µM (inactive) | > 100 µM (inactive) | > 95.5 µM (inactive) | 92.5 µM (inactive) | > 100 µM (inactive) | > 100 µM (inactive) | > 100 µM (inactive) | > 100 µM (inactive) | 29.6 µM (inactive) | > 66.8 µM (inactive) | > 65 µM (inactive) | > 100 µM (inactive) | > 100 µM (inactive) | > 100 µM (inactive) |  | > 100 µM (inactive) | > 100 µM (inactive)
12 | CC1=C(Oc2ccccc2)C(CCC(=O)O)c2c(O)cc(Cl)c(O)c21 (centres undefined) | > 100 µM (inactive) | > 100 µM (inactive) | > 100 µM (inactive) | > 100 µM (inactive) | > 100 µM (inactive) | > 100 µM (inactive) | > 100 µM (inactive) |  | > 100 µM (inactive) |  | > 100 µM (inactive) | > 100 µM (inactive) | > 100 µM (inactive) |  | > 100 µM (inactive) |  | > 100 µM (inactive) |  |  | 
13 | CCCCN(CCCC)C1=Nc2ccccc2-n2c(nnc2C(=O)OCC)C1 | 73.1 µM (inactive) |  | 33.9 µM (inactive) | 49.9 µM (inactive) | 43.5 µM (inactive) | 38.8 µM (inactive) | 33.6 µM (inactive) | 22 µM (inactive) | 35.9 µM (inactive) | 24.6 µM (inactive) | 74.6 µM (inactive) | > 100 µM (inactive) | 24.7 µM (inactive) | 33.1 µM (inactive) | 58.3 µM (inactive) | 47.2 µM (inactive) | 27 µM (inactive) |  | 75.3 µM (inactive) | 10.4 µM (inactive)
14 | O=C(O)CCC(=O)N1c2ccccc2CC1c1c[nH]c2ccccc12 (centres undefined) | > 100 µM (inactive) | > 100 µM (inactive) | > 100 µM (inactive) | > 100 µM (inactive) | > 100 µM (inactive) | > 100 µM (inactive) | > 100 µM (inactive) | > 100 µM (inactive) | > 100 µM (inactive) | > 100 µM (inactive) | > 100 µM (inactive) | 76.6 µM (inactive) | > 100 µM (inactive) | > 100 µM (inactive) | > 100 µM (inactive) | > 100 µM (inactive) | > 100 µM (inactive) |  |  | 
15 | Cc1cc(N(CCC#N)CCC#N)ccc1/C=C(\NC(=O)/C=C/c1ccccc1)NC(=O)Nc1ccccc1C | 26.8 µM (inactive) | 65.3 µM (inactive) | > 100 µM (inactive) | 69.7 µM (inactive) | > 100 µM (inactive) | > 100 µM (inactive) | 23.4 µM (inactive) | > 100 µM (inactive) | 68.4 µM (inactive) | > 100 µM (inactive) | 58.7 µM (inactive) |  | 17.2 µM (inactive) |  | > 100 µM (inactive) | 46.1 µM (inactive) | > 100 µM (inactive) |  |  | 
16 | C=C1CCCC(C)(C)[C@@H]1CC/C(C)=C/Cn1c2cccc(=O)c-2nc2ccccc21 |  | 3.52 µM (inactive) | 1.72 µM (inactive) | 1.77 µM (inactive) | 0.406 µM (active) | 2.06 µM (inactive) | 1.94 µM (inactive) | 1.77 µM (inactive) | 1.71 µM (inactive) |  | 1.52 µM (inactive) |  |  | 1.41 µM (inactive) | 1.61 µM (inactive) | 0.771 µM (active) | 0.41 µM (active) |  |  | 
17 | CS(=O)(=O)OCC(CCl)(CCl)CCl |  | > 100 µM (inactive) | > 100 µM (inactive) |  | > 100 µM (inactive) | > 100 µM (inactive) | > 100 µM (inactive) | > 100 µM (inactive) |  |  | > 100 µM (inactive) | > 100 µM (inactive) | > 100 µM (inactive) | > 100 µM (inactive) | > 100 µM (inactive) |  | > 100 µM (inactive) |  | > 100 µM (inactive) | > 100 µM (inactive)
